Read-outs that look alike come from different tables or passages of the source.
Experiment: Test 2: Pharmacokinetic test in rats
Assay type: in vivo, rat
Conditions: rat, blood; for concentration at 0.05 h: 3 min; for concentration at 0.5 h: 30 min; for concentration at 0.75 h: 45 min; for concentration at 1 h: 60 min; for concentration at 1.5 h: 90 min; for concentration at 2 h: 120 min; for concentration at 3 h: 180 min
Method: Male rats and dogs were fasted for 24 hours and used as the experimental animals. […] Bloods were collected from the animals at given time intervals and then immediately mixed with methanol and zinc sulfate. Finally, the upper layer of the mixture was quantitatively analyzed at ultraviolet wavelength of 231 nm to measure the drug concentration in blood by HPLC.

[1] = iv, 10 mg/kg, Rat-1, i.v. 10 mg/kg, read-out: Blood concentration
[2] = iv, 10 mg/kg, Rat-2, i.v. 10 mg/kg, read-out: Blood concentration
[3] = iv, 10 mg/kg, Rat-3, i.v. 10 mg/kg, read-out: Blood concentration
[4] = iv, 10 mg/kg, rats, i.v. 10 mg/kg, read-out: Blood concentration, Average(+error)
[5] = po, 15 mg/kg, Rat-1, oral 15 mg/kg, read-out: Blood concentration
[6] = po, 15 mg/kg, Rat-2, oral 15 mg/kg, read-out: Blood concentration
[7] = po, 15 mg/kg, Rat-3, oral 15 mg/kg, read-out: Blood concentration
[8] = po, 15 mg/kg, rats, oral 15 mg/kg, read-out: Blood concentration, Average(+error)

## CN(C(=O)[C@H](Cc1ccc(C(=N)NN)cc1)NS(=O)(=O)c1ccc2ccccc2c1)C1CCCC1 [Example 1, (S)-N-cyclopentyl-N-methyl-3-(4-amidrazonophenyl)-2-(2-naphthylsulfonylamino)propionamide]
[1]
  concentration at 1 min: 31500 ng/mL
  concentration at 0.05 h: 8100 ng/mL
  concentration at 5 min: 3980 ng/mL
  concentration at 10 min: 1910 ng/mL
  concentration at 20 min: 918 ng/mL
  concentration at 0.5 h: 631 ng/mL
  concentration at 0.75 h: 355 ng/mL
  concentration at 1 h: 270 ng/mL
  concentration at 1.5 h: 168 ng/mL
  concentration at 2 h: 76 ng/mL
  concentration at 3 h: 87 ng/mL
[2]
  concentration at 1 min: 23000 ng/mL
  concentration at 0.05 h: 6770 ng/mL
  concentration at 5 min: 3070 ng/mL
  concentration at 10 min: 1830 ng/mL
  concentration at 20 min: 898 ng/mL
  concentration at 0.5 h: 600 ng/mL
  concentration at 0.75 h: 408 ng/mL
  concentration at 1 h: 242 ng/mL
  concentration at 1.5 h: 166 ng/mL
  concentration at 2 h: 97 ng/mL
  concentration at 3 h: 73 ng/mL
[3]
  concentration at 1 min: 32000 ng/mL
  concentration at 0.05 h: 7880 ng/mL
  concentration at 5 min: 4220 ng/mL
  concentration at 10 min: 1930 ng/mL
  concentration at 20 min: 883 ng/mL
  concentration at 0.5 h: 591 ng/mL
  concentration at 0.75 h: 398 ng/mL
  concentration at 1 h: 289 ng/mL
  concentration at 1.5 h: 184 ng/mL
  concentration at 2 h: 119 ng/mL
  concentration at 3 h: 78 ng/mL
[4]
  concentration at 1 min: 28800 ng/mL
  concentration at 0.05 h: 7590 ng/mL
  concentration at 5 min: 3760 ng/mL
  concentration at 10 min: 1890 ng/mL
  concentration at 20 min: 900 ng/mL
  concentration at 0.5 h: 607 ng/mL
  concentration at 0.75 h: 387 ng/mL
  concentration at 1 h: 267 ng/mL
  concentration at 1.5 h: 173 ng/mL
  concentration at 2 h: 97 ng/mL
  concentration at 3 h: 79 ng/mL
[5]
  concentration at 5 min: 1610 ng/mL
  concentration at 10 min: 1480 ng/mL
  concentration at 20 min: 569 ng/mL
  concentration at 0.5 h: 232 ng/mL
  concentration at 0.75 h: 145 ng/mL
  concentration at 1 h: 143 ng/mL
  concentration at 1.5 h: 66 ng/mL
  concentration at 2 h: 34 ng/mL
  concentration at 3 h: 24 ng/mL
[6]
  concentration at 5 min: 822 ng/mL
  concentration at 10 min: 686 ng/mL
  concentration at 20 min: 166 ng/mL
  concentration at 0.5 h: 82 ng/mL
  concentration at 0.75 h: 107 ng/mL
  concentration at 1 h: 123 ng/mL
  concentration at 1.5 h: 186 ng/mL
  concentration at 3 h: 238 ng/mL
[7]
  concentration at 5 min: 570 ng/mL
  concentration at 10 min: 384 ng/mL
  concentration at 20 min: 97 ng/mL
  concentration at 0.5 h: 113 ng/mL
  concentration at 0.75 h: 112 ng/mL
  concentration at 1 h: 110 ng/mL
  concentration at 1.5 h: 119 ng/mL
  concentration at 2 h: 71 ng/mL
  concentration at 3 h: 64 ng/mL
[8]
  concentration at 5 min: 1000 ng/mL
  concentration at 10 min: 850 ng/mL
  concentration at 20 min: 255 ng/mL
  concentration at 0.5 h: 143 ng/mL
  concentration at 0.75 h: 121 ng/mL
  concentration at 1 h: 125 ng/mL
  concentration at 1.5 h: 124 ng/mL
  concentration at 2 h: 53 ng/mL
  concentration at 3 h: 109 ng/mL
rats, oral route, read-out: Bioavailability
  bioavailability: 15%
